Measured values as given in patent publication US6461997B1, “Triazole sulfones having herbicidal activity” (Monsanto Technology LLC, priority 1999, dated 2002).

Legend:
AVEFA (wild oat) = assay: Pre-plant incorporated (PPI) herbicidal activity, cool season; type: in vivo, Avena fatua; conditions: for PPI activity GR80, AVEFA: pre-plant incorporated, lowest tested rate with 80% or greater inhibition, about 14 days
Method: (§1) In another set of tests, the pre-plant incorporated (PPI) activity of compounds of this invention was evaluated on the same species as for the pre-emergence tests described above. In the PPI tests the following procedure, designed to simulate PPI application, was used.
(§2) A pre-prepared topsoil mixture (described above) was placed in a pot and compacted to a depth of 1.0 to 1.25 cm from the top of the pot. Seeds of each of several monocotyledonous and dicotyledonous annual plant species were placed on top of the soil. A sufficient quantity of soil to cover the seeds and level fill the pot was weighed into an open container. A known amount of the test compound was dissolved or suspended in an organic solvent and applied by spraying to this cover soil. The cover soil was thoroughly mixed to distribute the test compound throughout the cover soil, and was then applied as a cover layer over the seeds. Untreated soil was used as a cover layer for control pots. After treatment the plants were placed in a greenhouse where they received 0.64 cm of overhead irrigation. All subsequent watering consisted of a light overhead mist and/or subirrigation as needed for germination and growth. Tables 9 and 10 below relate to warm season plant species which were placed after pre-emergence treatment in a greenhouse with a 30/21° C. day/night temperature regime. Tables 11 and 12 below relates to cool season plant species placed after pre-emergence treatment in a greenhouse or growth chamber with an 18/13° C. day/night temperature regime. Only the compounds of Examples 1, 6, 8, 11, 13 and 15-20 were included in PPI tests.
(§3) Approximately 14 days after planting and treating, the plants were observed and herbicidal efficacy recorded as percent inhibition by comparison with untreated plants.

BROTE (downy brome) = assay: as above; type: in vivo, Bromus tectorum; conditions: for PPI activity GR80, BROTE: pre-plant incorporated, lowest tested rate with 80% or greater inhibition, about 14 days
Method: as §1, §2, §3

AMARE (redroot pigweed) = assay: Pre-plant incorporated (PPI) herbicidal activity, warm season; type: in vivo, Amaranthus retroflexus; conditions: for PPI activity (GR80) AMARE: pre-plant incorporated, GR80 = lowest tested rate with 80% or greater inhibition, approx. 14 days after treating, 30/21° C.
Method: as §1, §2, §3

[1] = tested on: PANMI (wild proso millet); assay: Pre-emergence herbicidal activity, warm season; type: in vivo, Panicum miliaceum; conditions: GR80 = lowest tested rate (300, 100, 30, 10 g/ha) with 80% or greater inhibition; approx. 14 days after treating; 30/21° C.
Outline: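 Activity is expressed as the rate giving 80% inhibition, with 300, 100, 30 and 10 g/ha typically tested. An asterisk marks activity short of 80% at the top rate. Warm-season grasses were held at 30/21 °C; cool-season blackgrass and wild buckwheat at 18/13 °C; scoring at about 14 days.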

PANDI (fall panicum) = assay: Pre-emergence herbicidal activity, warm season; type: in vivo, Panicum dichotomiflorum; conditions: GR80 = lowest tested rate (300, 100, 30, 10 g/ha) with 80% or greater inhibition; approx. 14 days after treating; 30/21° C.
Outline: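 Seeds sown in sterilised fertilised topsoil received surface-applied compound in 50:50 acetone/water, typically at 300, 100, 30 and 10 g/ha, then greenhouse-grown at 30/21° C (warm-season species) or 18/13° C (cool-season species). Percent inhibition versus untreated plants was scored at about 14 days, giving GR80; an asterisk marks activity short of 80% at the top rate.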

ABUTH (velvetleaf) = assay: Pre-plant incorporated (PPI) herbicidal activity, warm season; type: in vivo, Abutilon theophrasti; conditions: for PPI activity (GR80) ABUTH: pre-plant incorporated, GR80 = lowest tested rate with 80% or greater inhibition, approx. 14 days after treating, 30/21° C.
Method: as §1, §2, §3

LOLMG (annual ryegrass) = assay: Post-emergence herbicidal activity, cool season; type: in vivo, Lolium multiflorum; conditions: abraded plants sprayed at 300, 100, 30 and 10 g/ha; about 14 days after treatment
Method: In another set of tests, the post-emergence activity of compounds of this invention was evaluated on the cool season species listed above. The following procedure was used.
A pre-prepared topsoil mixture (described above) was placed in a pot and compacted to a depth of 1.0 to 1.25 cm from the top of the pot. Seeds of each of several monocotyledonous and dicotyledonous annual plant species were placed on top of the soil. The seeds were covered with a mixture of 50% topsoil and 50% Rediearth™ in sufficient quantity to level-fill the pots. The pots were then placed on a greenhouse bench and subirrigated as needed.
When plants growing from the seeds had emerged and reached a suitable growth stage for post-emergence treatment, typically 9 to 14 days after planting, above-ground parts of the plants were subjected to a pre-treatment involving abrasion to create greater opportunity for foliar uptake of subsequently applied compounds. Abrasion was performed using garnet 200w particles applied with a Sears Craftsman hand-held sandblaster operated at approximately 850 kPa (50 psig) pressure.
A known amount of each test compound dissolved or suspended in an appropriate organic solvent was diluted with a 50:50 mix of acetone and water and applied to the plants by spraying with a standard spray nozzle in a spray volume of […] at a spray pressure of 511 kPa (30 psig). Only the compounds of Examples 1, 8-15 and 17-22 were included in post-emergence tests. Application rates for these compounds were 300, 100, 30 and 10 g/ha. Control plants were abraded but not sprayed.
After treatment the plants were placed in a greenhouse with an 18/13° C. day/night temperature regime and were subsequently watered as needed for growth. Approximately 14 days after treatment, the plants were observed and herbicidal efficacy recorded as percent inhibition by comparison with control plants. GR80 values were assigned for each compound as described above for the pre-emergence tests.

[2] = weed, PPI application, 100 g/ha
[3] = weed, PPI application, 300 g/ha
[4] = weed, PPI application, 900 g/ha

Structure (SMILES): CCN(CC)C(=O)n1cnc(S(=O)(=O)C(F)(F)C(=O)c2ccccc2)n1 [Example 6]
- PPI activity GR80, AVEFA (AVEFA (wild oat)): 300 g/ha
- PPI activity GR80, BROTE (BROTE (downy brome)): * (activity observed, at least at highest rate, but <80% inhibition)
- PPI activity (GR80) AMARE (AMARE (redroot pigweed)): 100 g/ha
- Pre-emergence activity (GR80) PANMI [1]: 300 g/ha
- Pre-emergence activity (GR80) PANDI (PANDI (fall panicum)): 300 g/ha

Structure (SMILES): CCSC(F)(F)S(=O)(=O)c1ncn(C(=O)N(CC)CC)n1 [Example 8, 1-(N,N-diethylcarbamoyl)-3-[difluoro(ethylthio)methylsulfonyl]-1,2,4-triazole]
- inhibition at 30 g/ha (AVEFA (wild oat); Avena fatua, weed, PPI application, 30 g/ha, read-out: Percent inhibition AVEFA): 10%
- inhibition at 100 g/ha (AVEFA (wild oat); Avena fatua, weed, PPI application, 100 g/ha, read-out: Percent inhibition AVEFA): 75%
- inhibition at 300 g/ha (AVEFA (wild oat); Avena fatua, weed, PPI application, 300 g/ha, read-out: Percent inhibition AVEFA): 95%
- inhibition at 900 g/ha (AVEFA (wild oat); Avena fatua, weed, PPI application, 900 g/ha, read-out: Percent inhibition AVEFA): 100%
- PPI activity GR80, AVEFA (AVEFA (wild oat)): 100 g/ha
- inhibition at 30 g/ha (BROTE (downy brome); Bromus tectorum, weed, PPI application, 30 g/ha, read-out: Percent inhibition BROTE): 0%
- inhibition at 100 g/ha (BROTE (downy brome); Bromus tectorum, weed, PPI application, 100 g/ha, read-out: Percent inhibition BROTE): 0%
- inhibition at 300 g/ha (BROTE (downy brome); Bromus tectorum, weed, PPI application, 300 g/ha, read-out: Percent inhibition BROTE): 65%
- inhibition at 900 g/ha (BROTE (downy brome); Bromus tectorum, weed, PPI application, 900 g/ha, read-out: Percent inhibition BROTE): 99%
- PPI activity GR80, BROTE (BROTE (downy brome)): 300 g/ha
- inhibition at 30 g/ha (ABUTH (velvetleaf); Abutilon theophrasti, PPI application, 30 g/ha, read-out: Percent inhibition ABUTH): 0%
- inhibition at 100 g/ha (ABUTH (velvetleaf); Abutilon theophrasti, PPI application, 100 g/ha, read-out: Percent inhibition ABUTH): 10%
- inhibition at 300 g/ha (ABUTH (velvetleaf); Abutilon theophrasti, PPI application, 300 g/ha, read-out: Percent inhibition ABUTH): 20%
- inhibition at 900 g/ha (ABUTH (velvetleaf); Abutilon theophrasti, PPI application, 900 g/ha, read-out: Percent inhibition ABUTH): 100%
- PPI activity (GR80) ABUTH (ABUTH (velvetleaf)): 300 g/ha
- Post-emergence activity GR80, LOLMG (LOLMG (annual ryegrass)): [empty]
- inhibition at 30 g/ha (AMARE (redroot pigweed); Amaranthus retroflexus, PPI application, 30 g/ha, read-out: Percent inhibition AMARE): 100%
- inhibition at 100 g/ha (AMARE (redroot pigweed); Amaranthus retroflexus, PPI application, 100 g/ha, read-out: Percent inhibition AMARE): 100%
- inhibition at 300 g/ha (AMARE (redroot pigweed); Amaranthus retroflexus, PPI application, 300 g/ha, read-out: Percent inhibition AMARE): 100%
- inhibition at 900 g/ha (AMARE (redroot pigweed); Amaranthus retroflexus, PPI application, 900 g/ha, read-out: Percent inhibition AMARE): 100%
- PPI activity (GR80) AMARE (AMARE (redroot pigweed)): 100 g/ha
- Pre-emergence activity (GR80) PANMI [1]: 100 g/ha

Structure (SMILES): CCN(CC)C(=O)n1cnc(S(=O)(=O)C(F)(F)SC)n1 [Example 9]
- Percent inhibition AVEFA (AVEFA (wild oat); weed, PPI application, 30 g/ha): 0%
- Percent inhibition AVEFA (AVEFA (wild oat); [2]): 20%
- Percent inhibition AVEFA (AVEFA (wild oat); [3]): 100%
- Percent inhibition AVEFA (AVEFA (wild oat); [4]): 100%
- Percent inhibition BROTE (BROTE (downy brome); weed, PPI application, 30 g/ha): 0%
- Percent inhibition BROTE (BROTE (downy brome); [2]): 0%
- Percent inhibition BROTE (BROTE (downy brome); [3]): 20%
- Percent inhibition BROTE (BROTE (downy brome); [4]): 95%
- Percent inhibition ABUTH (ABUTH (velvetleaf); PPI application, 30 g/ha): 0%
- Percent inhibition ABUTH (ABUTH (velvetleaf); PPI application, 100 g/ha): 0%
- Percent inhibition ABUTH (ABUTH (velvetleaf); PPI application, 300 g/ha): 60%
- Percent inhibition ABUTH (ABUTH (velvetleaf); PPI application, 900 g/ha): 90%
- Post-emergence activity GR80, LOLMG (LOLMG (annual ryegrass)): [empty]
- Percent inhibition AMARE (AMARE (redroot pigweed); PPI application, 30 g/ha): 90%
- Percent inhibition AMARE (AMARE (redroot pigweed); PPI application, 100 g/ha): 100%
- Percent inhibition AMARE (AMARE (redroot pigweed); PPI application, 300 g/ha): 100%
- Percent inhibition AMARE (AMARE (redroot pigweed); PPI application, 900 g/ha): 100%
- Pre-emergence activity (GR80) PANMI [1]: 100 g/ha

Structure (SMILES): CCN(CC)C(=O)n1cnc(S(=O)(=O)C(F)(F)C(F)F)n1 [Example 16]
- PPI activity GR80, AVEFA (AVEFA (wild oat)): 300 g/ha
- Percent inhibition AVEFA (AVEFA (wild oat); weed, PPI application, 10 g/ha): 0%
- Percent inhibition AVEFA (AVEFA (wild oat); weed, PPI application, 30 g/ha): 0%
- Percent inhibition AVEFA (AVEFA (wild oat); [2]): 0%
- Percent inhibition AVEFA (AVEFA (wild oat); [3]): 80%
- Percent inhibition AVEFA (AVEFA (wild oat); [4]): 90%
- PPI activity GR80, BROTE (BROTE (downy brome)): 300 g/ha
- Percent inhibition BROTE (BROTE (downy brome); weed, PPI application, 10 g/ha): 0%
- Percent inhibition BROTE (BROTE (downy brome); weed, PPI application, 30 g/ha): 0%
- Percent inhibition BROTE (BROTE (downy brome); [2]): 35%
- Percent inhibition BROTE (BROTE (downy brome); [3]): 40%
- Percent inhibition BROTE (BROTE (downy brome); [4]): 90%
- Percent inhibition ABUTH (ABUTH (velvetleaf); PPI application, 10 g/ha): 0%
- Percent inhibition ABUTH (ABUTH (velvetleaf); PPI application, 30 g/ha): 0%
- Percent inhibition ABUTH (ABUTH (velvetleaf); PPI application, 100 g/ha): 0%
- Percent inhibition ABUTH (ABUTH (velvetleaf); PPI application, 300 g/ha): 30%
- Percent inhibition ABUTH (ABUTH (velvetleaf); PPI application, 900 g/ha): 95%
- PPI activity (GR80) ABUTH (ABUTH (velvetleaf)): 100 g/ha
- Percent inhibition AMARE (AMARE (redroot pigweed); PPI application, 10 g/ha): 80%
- Percent inhibition AMARE (AMARE (redroot pigweed); PPI application, 30 g/ha): 100%
- Percent inhibition AMARE (AMARE (redroot pigweed); PPI application, 100 g/ha): 100%
- Percent inhibition AMARE (AMARE (redroot pigweed); PPI application, 300 g/ha): 100%
- Percent inhibition AMARE (AMARE (redroot pigweed); PPI application, 900 g/ha): 100%
- PPI activity (GR80) AMARE (AMARE (redroot pigweed)): 10 g/ha
- Pre-emergence activity (GR80) PANMI [1]: 30 g/ha
- Pre-emergence activity (GR80) PANDI (PANDI (fall panicum)): 100 g/ha
